From patent US6610708B1, “Cyclic amino compounds” (Sankyo Company, Limited, priority 1998, dated 2003) come the findings set out here.

The subject of one series is Human Platelets. The series can be described thus: Antiaggregatory action in human platelets (ADP-induced aggregation in platelet-rich plasma). The settings on record: human PRP; for inhibition at 10 µg/mL / inhibition at 30 µg/mL / inhibition at 100 µg/mL: Platelet, read-out: Test 1 (% inhibition) of platelet aggregation. The format is cell-based. How it is done: Antiaggregatory Action in Human Platelets
Platelet aggregation was measured using an automatic platelet aggregometer (PAM-8C, Mebanix) using the method of G.V.R. Born [Nature, 194, 927-929 ([…])] with a slight modification. Blood was collected from the antecubital vein of healthy volunteers who had not taken any medications for two weeks using 3.8% sodium citrate as an anticoagulant ( 1/9 volumes of blood). Platelet-rich plasma (PRP) was obtained by centrifugation (CR5DL, Hitachi) at 200× g for 15 min at room temperature. Platelet-poor plasma (PPP) was obtained by centrifugation of the remaining blood at 2,000× g for 10 min at room temperature. Platelet counts in PRP were measured by an automatic hematology analyzer (K-1000, Toa Iyo Denshi), and adjusted to 3×10^8 /ml by adding PPP. PRP prepared as described above was used for the platelet aggregation experiment. PRP (0.24 ml) containing a test compound was added to a cuvette and set placed in the platelet aggregometer. After pre-incubation for 1.5 min at 37° C., 0.01 ml of 0.25 mM ADP were added to the cuvette to induce platelet aggregation. Platelet aggregation was monitored for 10 min.
Antiaggregatory action of the test compound was determined as a percent inhibition (%) against platelet aggregation of a control (free of the test compound).

Consider `O=C(C1CC1)C(c1ccccc1F)N1CCC(SS(=O)(=O)c2ccccc2)CC1` (stereo not drawn) [Example 9 (b), 1-(α-Cyclopropylcarbonyl-2-fluorobenzyl)-4-phenylsulfonylthiopiperidine], for which the inhibition at 10 µg/mL in the series with Human Platelets (10 μg/ml test compound) came to 23.4%. Besides, the inhibition at 30 µg/mL in the series on Human Platelets (30 μg/ml test compound) is 97.3%. Besides, the inhibition at 100 µg/mL with Human Platelets (100 μg/ml test compound) worked out at 94%.

With `Cc1ccc([S+]([O-])SC2CCN(C(C(=O)C3CC3)c3ccccc3F)C2)cc1` (stereo not drawn) [Example 14, 1-(α-Cyclopropylcarbonyl-2-fluorobenzyl)-3-(4-methylphenylsulfinylthio)-pyrrolidine], the melting point lay within 87 to 100 °C.

Consider `C[S+]([O-])SC1CCN(C(C(=O)C2CC2)c2ccccc2F)CC1` (stereo not drawn) [Example 15 (b), 1-(α-Cyclopropylcarbonyl-2-fluorobenzyl)-4-methylsulfinylthiopiperidine], for which the inhibition at 10 µg/mL in the series on Human Platelets (10 μg/ml test compound) turned out to be 12.3%. Further, in the series on Human Platelets (30 μg/ml test compound), the inhibition at 30 µg/mL was 28.1%. Further, the inhibition at 100 µg/mL with Human Platelets (100 μg/ml test compound) was 71.1%.

As to `Cc1ccc(S(=O)(=O)SC2CCN(C(C(=O)C3CC3)c3ccccc3F)CC2)cc1` (stereo not drawn) [Example 1, 1-(α-Cyclopropylcarbonyl-2-fluorobenzyl)-4-(4-methylphenylsulfonylthio)-piperidine], the melting point fell in the range of 63 to 69 °C. The inhibition at 10 µg/mL with Human Platelets (10 μg/ml test compound) turned out to be 36.5%. For the same compound, the inhibition at 30 µg/mL with Human Platelets (30 μg/ml test compound) turned out to be 99.6%. Further, the inhibition at 100 µg/mL in the series on Human Platelets (100 μg/ml test compound) was found to be 100%.

Take `COC(=O)C(c1ccccc1F)N1CCC(SS(=O)(=O)c2ccc(C)cc2)CC1` (stereo not drawn) [Example 3 (d), 1-(2-Fluoro-α-methoxycarbonylbenzyl)-4-(4-methylphenylsulfonylthio)-piperidine]: the inhibition at 10 µg/mL in the series with Human Platelets (10 μg/ml test compound) came to 24.4%. Further, the inhibition at 30 µg/mL in the series on Human Platelets (30 μg/ml test compound) worked out at 89.3%. The inhibition at 100 µg/mL in the series on Human Platelets (100 μg/ml test compound) amounted to 99.8%.

`CCOC(=O)/C=C1\CN(C(C(=O)C2CC2)c2ccccc2F)CCC1SS(=O)(=O)c1ccc(C)cc1` (stereo not drawn) [Example 6, (E)-1-(α-Cyclopropylcarbonyl-2-fluorobenzyl)-3-ethoxycarbonylmethylidene-4-(4-methylphenylsulfonylthio)piperidine] came in with a melting point of 94 to 103 °C.

For `COC(=O)C(c1ccccc1Cl)N1CCC(SS(=O)(=O)c2ccc(C)cc2)CC1` (stereo not drawn) [Example 2 (d), 1-(2-Chloro-α-methoxycarbonylbenzyl)-4-(4-methylphenylsulfonylthio)-piperidine], the inhibition at 10 µg/mL in the series with Human Platelets (10 μg/ml test compound) was 32.8%. Moreover, in the series on Human Platelets (30 μg/ml test compound), the inhibition at 30 µg/mL came out at 97.1%. The inhibition at 100 µg/mL in the series on Human Platelets (100 μg/ml test compound) was found to be 98%.

The compound `COC(=O)/C=C1\CN(C(C(=O)OC)c2ccccc2Cl)CCC1SS(=O)(=O)c1ccc(C)cc1` (stereo not drawn) [Example 7 (ii), (E)-1-(2-Chloro-α-methoxycarbonylbenzyl)-3-methoxycarbonylmethylidene-4-(4-methylphenylsulfonylthio)piperidine] displayed a melting point of 144 to 146 °C. The inhibition at 10 µg/mL in the series on Human Platelets (10 μg/ml test compound) was determined as 34.5%. Further, in the series on Human Platelets (30 μg/ml test compound), the inhibition at 30 µg/mL is 81.5%.

`O=C(C1CC1)C(c1ccccc1F)N1CCC(SSc2ccccc2[N+](=O)[O-])CC1` (stereo not drawn) [Example 18, 1-(α-Cyclopropylcarbonyl-2-fluorobenzyl)-4-(2-nitrophenyldisulfanyl)-piperidine] yielded a melting point of 110 to 116 °C.

For the compound `Cc1ccc([S+]([O-])SC2CCN(C(C(=O)C3CC3)c3ccccc3F)CC2)cc1` (stereo not drawn) [Example 13, 1-(α-Cyclopropylcarbonyl-2-fluorobenzyl)-4-(4-methylphenylsulfinylthio)-piperidine], the melting point lay within 110 to 118 °C.

Compound `O=C(C1CC1)C(c1ccccc1F)N1CCC(SS(=O)(=O)c2ccc(Cl)cc2)CC1` (stereo not drawn) [Example 10, 4-(4-Chlorophenylsulfonylthio)-1-(α-cyclopropylcarbonyl-2-fluorobenzyl)-piperidine] came in with a melting point of 108 to 116 °C.

With `O=C(C1CC1)C(c1ccccc1F)N1CCC(SS(=O)(=O)c2ccc(F)cc2)CC1` (stereo not drawn) [Example 11 (b), 1-(α-Cyclopropylcarbonyl-2-fluorobenzyl)-4-(4-fluorophenylsulfonylthio)-piperidine], the inhibition at 10 µg/mL in the series on Human Platelets (10 μg/ml test compound) was determined as 15.5%. In addition, the inhibition at 30 µg/mL with Human Platelets (30 μg/ml test compound) was determined as 98%. For the same compound, the inhibition at 100 µg/mL in the series with Human Platelets (100 μg/ml test compound) was found to be 92.5%.

In turn, `Cc1ccc(S(=O)(=O)SC2CCN(C(C(=O)C3CC3)c3ccccc3F)C2)cc1` (stereo not drawn) [Example 4, 1-(α-Cyclopropylcarbonyl-2-fluorobenzyl)-3-(4-methylphenylsulfonylthio)-pyrrolidine] registered a melting point of 98 to 106 °C.

As for `O=C(C1CC1)C(c1ccccc1F)N1CCC(SS(=O)(=O)c2ccc(Cl)cc2)CC1` (stereo not drawn) [Example 10 (b), 4-(4-Chlorophenylsulfonylthio)-1-(α-cyclopropylcarbonyl-2-fluorobenzyl)-piperidine], in the series with Human Platelets (10 μg/ml test compound), the inhibition at 10 µg/mL was 35.2%. Besides, the inhibition at 30 µg/mL in the series on Human Platelets (30 μg/ml test compound) turned out to be 96.2%. Further, the inhibition at 100 µg/mL in the series on Human Platelets (100 μg/ml test compound) stood at 98.8%.

In turn, `COC(=O)C(c1ccccc1Cl)N1CCC(SS(=O)(=O)c2ccc(C)cc2)CC1` (stereo not drawn) [Example 2, 1-(2-Chloro-α-methoxycarbonylbenzyl)-4-(4-methylphenylsulfonylthio)-piperidine] returned a melting point of 100 to 115 °C.

`C[S+]([O-])SC1CCN(C(C(=O)C2CC2)c2ccccc2F)CC1` (stereo not drawn) [Example 15, 1-(α-Cyclopropylcarbonyl-2-fluorobenzyl)-4-methylsulfinylthiopiperidine] gave a melting point of 105 to 111 °C.

Take `Cc1ccc([S+]([O-])SC2CCN(C(C(=O)C3CC3)c3ccccc3F)C2)cc1` (stereo not drawn) [Example 14 (b), 1-(α-Cyclopropylcarbonyl-2-fluorobenzyl)-3-(4-methylphenylsulfinylthio)-pyrrolidine]: in the series with Human Platelets (10 μg/ml test compound), the inhibition at 10 µg/mL came to 28.6%. Besides, the inhibition at 30 µg/mL in the series on Human Platelets (30 μg/ml test compound) was 64%. In the series with Human Platelets (100 μg/ml test compound), the inhibition at 100 µg/mL came out at 95.8%.

In turn, `N[C@@H](CSSC1CCN(C(C(=O)C2CC2)c2ccccc2F)C/C1=C/C(=O)O)C(=O)O` (stereo partly drawn) [Example 19, (Z)-4-[(R)-2-Amino-2-carboxyethyldisulfanyl]-3-carboxymethylidene-1-(α-cyclopropylcarbonyl-2-fluorobenzyl)piperidine] had a melting point of 135 to 138 °C.

For the compound `Cc1ccc(S(=O)(=O)SC2CCN(C(C(=O)C3CC3)c3ccccc3F)C2)cc1` (stereo not drawn) [Example 4 (d), 1-(α-Cyclopropylcarbonyl-2-fluorobenzyl)-3-(4-methylphenylsulfonylthio)-pyrrolidine], the inhibition at 10 µg/mL in the series on Human Platelets (10 μg/ml test compound) amounted to 30.6%. Besides, the inhibition at 30 µg/mL in the series on Human Platelets (30 μg/ml test compound) was determined as 77.6%. Moreover, the inhibition at 100 µg/mL in the series on Human Platelets (100 μg/ml test compound) was found to be 99.5%.

In turn, `COc1ccc(S(=O)(=O)SC2CCN(C(C(=O)C3CC3)c3ccccc3F)CC2)cc1` (stereo not drawn) [Example 12, 1-(α-Cyclopropylcarbonyl-2-fluorobenzyl)-4-(4-methoxyphenylsulfonylthio)piperidine] returned a melting point of 113 to 122 °C.

For `COc1ccc(S(=O)(=O)SC2CCN(C(C(=O)C3CC3)c3ccccc3F)CC2)cc1` (stereo not drawn) [Example 12 (b), 1-(α-Cyclopropylcarbonyl-2-fluorobenzyl)-4-(4-methoxyphenylsulfonylthio)piperidine], the inhibition at 10 µg/mL in the series with Human Platelets (10 μg/ml test compound) was determined as 19.2%. Further, the inhibition at 30 µg/mL in the series with Human Platelets (30 μg/ml test compound) worked out at 93.9%. For the same compound, the inhibition at 100 µg/mL in the series on Human Platelets (100 μg/ml test compound) was determined as 100%.

As to `Cc1ccc(S(=O)(=O)SC2CN(C(C(=O)C3CC3)c3ccccc3F)C2)cc1` (stereo not drawn) [Example 5 (d), 1-(α-Cyclopropylcarbonyl-2-fluorobenzyl)-3-(4-methylphenylsulfonylthiol)-azetidine], the figures for the “Test 1 (% inhibition) of platelet aggregation” value in the series on Human Platelets (10 μg/ml test compound), in the series with Human Platelets (30 μg/ml test compound) and in the series on Human Platelets (100 μg/ml test compound) were 37.1%, 98.4% and 99.6%, respectively.

In turn, `COC(=O)C(c1ccccc1F)N1CCC(SS(=O)(=O)c2ccc(C)cc2)CC1` (stereo not drawn) [Example 3, 1-(2-Fluoro-α-methoxycarbonylbenzyl)-4-(4-methylphenylsulfonylthio)-piperidine] gave a melting point of 106 to 109 °C.

As for `O=C(C1CC1)C(c1ccccc1F)N1CCC(SS(=O)(=O)c2ccc(F)cc2)CC1` (stereo not drawn) [Example 11, 1-(α-Cyclopropylcarbonyl-2-fluorobenzyl)-4-(4-fluorophenylsulfonylthio)-piperidine], the melting point fell in the range of 110 to 121 °C.

With `O=C(C1CC1)C(c1ccccc1F)N1CCC(SS(=O)(=O)c2ccccc2)CC1` (stereo not drawn) [Example 9, 1-(α-Cyclopropylcarbonyl-2-fluorobenzyl)-4-phenylsulfonylthiopiperidine], the melting point lay within 105 to 116 °C.

In turn, `Cc1ccc(SSC2CCN(C(C(=O)C3CC3)c3ccccc3F)CC2)cc1` (stereo not drawn) [Example 16, 1-(α-Cyclopropylcarbonyl-2-fluorobenzyl)-4-(4-methylphenyldisulfanyl)-piperidine] yielded a melting point of 96 to 103 °C.

`Cc1ccc([S+]([O-])SC2CCN(C(C(=O)C3CC3)c3ccccc3F)CC2)cc1` (stereo not drawn) [Example 13 (b), 1-(α-Cyclopropylcarbonyl-2-fluorobenzyl)-4-(4-methylphenylsulfinylthio)-piperidine]: the inhibition at 10 µg/mL with Human Platelets (10 μg/ml test compound) is 13.3%. Besides, the inhibition at 30 µg/mL in the series on Human Platelets (30 μg/ml test compound) was 40%. In addition, the inhibition at 100 µg/mL in the series with Human Platelets (100 μg/ml test compound) was determined as 91.8%.

In turn, `O=C(C1CC1)C(c1ccccc1F)N1CCC(SSc2ccc([N+](=O)[O-])cc2[N+](=O)[O-])CC1` (stereo not shown) displayed a melting point of 120 to 127 °C.

In general, inhibition refers to the change of the read-out against control, counted positive when it falls. By melting point is commonly meant the temperature of the solid-liquid transition.
